# According to patent publication US5521197A, “3-<1-alkylenearyl>-4-<1,2,3,6-tetrahydropyridinyl>-and 3-<1-alkylenearyl>-4-piperidinyl-1h-indoles: new 5-HT1F agonists” (Eli Lilly and Company, priority 1994, dated 1996):
# Structures can show the parent of a compound that is named as a salt. Where two headings read alike, the source gives them in different places.
# Columns and labels:
# [1] = system: protein extravasation in the dura; assay: Inhibition of neuronal protein extravasation (trigeminal ganglion stimulation, Evans Blue in dura); format: in vivo, Harlan Sprague-Dawley rats or guinea pigs
# 5-HT1F receptor = biological target: T1, 5-HT1F receptor (Homo sapiens, UniProt P30939); assay: Radioligand ([3H]5-HT) binding to the 5-HT1F receptor subtype; design: expressed in transfected cells; host or cells: Ltk- cells (membranes); details: for inhibition at 1 µM: read-out: 5-HT1F BINDING, % displacement at 1000 nM; for Ki: [3H]5-HT displacement, transfected Ltk- cell membranes, 37° C., read-out: 5-HT1F BINDING Ki
# T1 sequence (P30939 1-366): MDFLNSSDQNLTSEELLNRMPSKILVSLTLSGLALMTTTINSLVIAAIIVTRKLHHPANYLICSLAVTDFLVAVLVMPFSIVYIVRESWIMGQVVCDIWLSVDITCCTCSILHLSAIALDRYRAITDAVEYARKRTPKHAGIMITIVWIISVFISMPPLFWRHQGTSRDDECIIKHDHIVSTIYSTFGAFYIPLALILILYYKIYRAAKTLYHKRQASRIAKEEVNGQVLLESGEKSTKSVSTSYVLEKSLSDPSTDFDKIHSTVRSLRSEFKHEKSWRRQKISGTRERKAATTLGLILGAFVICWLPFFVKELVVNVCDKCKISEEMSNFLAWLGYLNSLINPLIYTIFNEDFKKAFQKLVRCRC
# Description: The cells were washed twice with phosphate-buffered saline, scraped from the culture dishes into 5 mL of ice-cold phosphate-buffered saline, and centrifuged at 200×g for 5 minutes at 4° C. The pellet was resuspended in 2.5 mL of ice-cold Tris buffer (20 mM Tris HCl, pH=7.4 at 23° C., 5 mM EDTA) and homogenized with a Wheaton tissue grinder. The lysate was subsequently centrifuged at 200×g for 5 minutes at 4° C. to pellet large fragments which were discarded. The supernatant was collected and centrifuged at 40,000×g for 20 minutes at 4° C. The pellet resulting from this centrifugation was washed once in ice-cold Tris wash buffer and resuspended in a final buffer containing 50 mM Tris HCl and 0.5 mM EDTA, pH=7.4 at 23° C. Membrane preparations were kept on ice and utilized within two hours for the radioligand binding assays.
# Saturation studies were conducted using [^3 H]5-HT at 12 different concentrations ranging from 0.5 nM to 100 nM. […] The binding profile of drugs in competition experiments was accomplished using 10-12 concentrations of compound. […] Nonspecific binding was defined in the presence of 10 μM 5-HT. Binding was initiated by the addition of 50 μL membrane homogenates (10-20 μg). The reaction was terminated by rapid filtration through presoaked (0.5% polyethyleneimine) filters using 48R Cell Brandel Harvester (Gaithersburg, Md.). Subsequently, filters were washed for 5 seconds with ice cold buffer (50 mM Tris HCl, pH=7.4 at 4° C.), dried and placed into vials containing 2.5 mL Readi-Safe (Beckman, Fullerton, Calif.) and radioactivity was measured using a Beckman LS 5000TA liquid scintillation counter. […] Binding data was analyzed by computer-assisted nonlinear regression analysis (Accufit and Accucomp, Lunden Software, Chagrin Falls, Ohio). […] All experiments were performed in triplicate. […]
# [2] = system: cephalic vascular smooth muscle; details: cited from earlier work
# migraine = details: in vivo; cited from earlier work
# neurogenic inflammation = details: in vivo; cited from earlier work
# [3] = iv, read-out: Inhibition of Protein Extravasation, i.v. ID50
smiles,measurement,setting,value
"CNS(=O)(=O)Cc1ccc2[nH]cc(CCN(C)C)c2c1 [Compound I, 3-[2-(dimethylamino)ethyl]-N-methyl-1H-indole-5-methanesulfonamide butane-1,4-dioate (1:1)]",ED50,[1]; [3],2.6e-05 µmol/kg
"Cn1cc(CCN2CCC(c3c[nH]c4ccc(F)cc34)CC2)cn1 [Compound II, 5-fluoro-3-<1-<2-<1-methyl-1H-pyrazol-4-yl>ethyl>-4-piperidinyl>-1H-indolehydrochloride]",ED50,"[1]; iv; read-out: Inhibition of Protein Extravasation, i.v. ID50",8.6e-07 µmol/kg
"Oc1ccc2[nH]cc(C3CCNCC3)c2c1 [Compound III, 5-hydroxy-3-(4-piperidinyl)-1H-indole oxalate]",ED50,[1]; [3],8.9e-06 µmol/kg
"CCN(CC)C1CCc2cccc(Cl)c2C1 (stereo not drawn) [Compound IV, 8-chloro-2-diethylamino-1,2,3,4-tetrahydronaphthalene hydrochloride]",ED50,[1]; [3],0.00012 µmol/kg
"CN(C)C1CCc2[nH]c3ccc(O)cc3c2C1 (stereo not drawn) [Compound V, 6-hydroxy-3-dimethylamino-1,2,3,4-tetrahydrocarbazole]",ED50,[1]; [3],8.7e-06 µmol/kg
"C1=C(c2c[nH]c3ccccc23)CCN(CCSc2ccccc2)C1 [Example 39, 3-<1-<2-<phenylthio>ethyl>-4-<1,2,3,6-tetrahydropyridinyl>>-1H-indole]",inhibition at 1 µM,5-HT1F receptor,34%
"c1ccc(OCCN2CCC(c3c[nH]c4ccccc34)CC2)cc1 [Example 40, 3-<1-<2-phenoxyethyl>-4-piperidinyl>-1H-indole hydrochloride]",Ki,5-HT1F receptor; Table I,191 nM
"c1ccc(OCCCN2CCC(c3c[nH]c4ccccc34)CC2)cc1 [Example 41, 3-<1-<3-phenoxypropyl>-4-piperidinyl>-1H-indole hydrochloride]",Ki,5-HT1F receptor; Table I,91.4 nM
"c1ccc(SCCN2CCC(c3c[nH]c4ccccc34)CC2)cc1 [Example 42, 3-<1-<2-<phenylthio>ethyl>-4-piperidinyl>-1H-indole]",Ki,5-HT1F receptor; Table I,342 nM
"C1=C(c2c[nH]c3ccccc23)CCN(CCCCc2ccccc2)C1 [Example 43, 3-<1-<4-phenylbutyl>-4-<1,2,3,6-tetrahydropyridinyl>>-1H-indolehydrochloride]",Ki,5-HT1F receptor; Table I,547 nM
"C1=C(c2c[nH]c3ccccc23)CCN(Cc2ccccc2)C1 [Example 44, 3-<1-benzyl-4-<1,2,3,6-tetrahydropyridinyl>>-1H-indole hydrochloride]",Ki,5-HT1F receptor; Table I,396 nM
"c1ccc(CN2CCC(c3c[nH]c4ccccc34)CC2)cc1 [Example 45, 3-<1-benzyl-4-piperidinyl>-1H -indole]",Ki,5-HT1F receptor; Table I,240 nM
"c1ccc(CCCCN2CCC(c3c[nH]c4ccccc34)CC2)cc1 [Example 46, 3-<1-<4-phenylbutyl>-4-piperidinyl>-1H-indole hydrochloride]",Ki,5-HT1F receptor; Table I,20.4 nM
"C1=C(c2c[nH]c3ccccc23)CCN(CCCc2ccccc2)C1 [Example 47, 3-<1-<3-phenylpropyl>-4-<1,2,3,6-tetrahydropyridinyl>>-1H-indolehydrochloride]",inhibition at 1 µM,5-HT1F receptor,62%
"c1ccc(CCCN2CCC(c3c[nH]c4ccccc34)CC2)cc1 [Example 48, 3-<1-<3-phenylpropyl>-4-piperidinyl>-1H-indole hydrochloride]",inhibition at 1 µM,"5-HT1F receptor; Table I, at 1000 nM",50%
CNS(=O)(=O)Cc1ccc2[nH]cc(CCN(C)C)c2c1 [sumatriptan],contraction of cephalic vascular smooth muscle,[2],contract cephalic vascular smooth muscle
same,effectiveness in the treatment of migraine,migraine,effective in the treatment of migraine
same,blockade of neurogenic inflammation,neurogenic inflammation,blocked
